# Assay results as given in patent US12310929B2, “Use of rasagiline for the treatment of restless legs syndrome” (TEVA PHARMACEUTICAL INDUSTRIES, LTD., priority 2006, dated 2025).
# How the values were obtained:
# [1] = tested on: RLS; details: treatment of RLS; cited from earlier work
# [2] = tested on: 6-hydroxydopamine lesioned rats; details: treated lesioned rats compared with untreated lesioned rats
# Protocol: 6-hydroxydopamine is an agent that selectively disrupts or destroys catecholaminergic systems. Thus, stereotaxic bilateral 6-hydroxydopamine lesions into the nucleus of dopaminergic diencephalic spinal neurons (A11) are performed to effect behavior consistent, although not specific, with what would be expected in a rat model of RLS. (Ondo W. G. et al., Clinical Correlates of 6-Hydroxydopamine Injections into A11 Dopaminergic Neurons in Rats: A Possible Model for Restless Leg Syndrome, Mov. Disord., 2000, 15(1):154-8)
SMILES,"quality of sleep, frequency of waking up, periodic leg movement during sleep [1]",soporiferous latency [1],number of standing episodes [2],total standing time [2]
Clc1cccc(Cl)c1N=C1NCCN1 [Clonidine],no effect,reduced,,
"C#CCN[C@@H]1CCc2ccccc21.CS(=O)(=O)O [R(+)PAI mesylate, R(+)-N-propargyl-1-aminoindan mesylate]",,,fewer standing episodes,less total standing time
